According to ChEMBL document CHEMBL1130478, “Mono and bis double ester prodrugs of novel aminomethyl-THF 1-methylcarbapenems” (Bioorg Med Chem Lett, 1997):
In brackets after ≈: the same amount, converted by molar mass.

Columns and labels:
Citrobacter freundii [1] = assay: In vitro antibacterial activity against C. freundii(GC 2211) without preincubation in mouse serum; format: functional
[2] = molecular target: T1, Dipeptidase 1 (Sus scrofa) (UniProt P22412); assay: Relative hydrolysis by hog Dehydropeptidase; format: functional
T1 sequence (whole entry): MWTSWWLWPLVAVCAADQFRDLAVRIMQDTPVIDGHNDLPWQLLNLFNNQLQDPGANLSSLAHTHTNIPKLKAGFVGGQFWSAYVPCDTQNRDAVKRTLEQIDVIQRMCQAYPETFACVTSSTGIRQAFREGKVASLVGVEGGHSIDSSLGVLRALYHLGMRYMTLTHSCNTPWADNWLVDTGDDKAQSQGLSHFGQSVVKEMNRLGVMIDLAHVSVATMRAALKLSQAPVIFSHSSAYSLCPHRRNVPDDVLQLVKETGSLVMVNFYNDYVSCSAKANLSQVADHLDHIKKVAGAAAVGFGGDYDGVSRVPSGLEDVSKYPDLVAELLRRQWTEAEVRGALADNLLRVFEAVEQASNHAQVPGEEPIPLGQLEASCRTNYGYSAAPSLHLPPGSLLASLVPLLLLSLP

Enterobacter cloacae [3] = assay: In vitro antibacterial activity against E. cloacae(GC 2209) without pre-incubation in mouse serum; format: functional
Enterococcus faecium [4] = assay: In vitro for antibacterial activity against E. faecium(GC 1182) without pre-incubation in mouse serum; format: functional
Escherichia coli [5] = assay: In vitro antibacterial activity expressed as MIC against Escherichia coli (ATCC 25922) without pre-incubation in mouse serum; format: functional
Escherichia coli [6] = assay: In vitro antibacterial activity expressed as MIC against E. coli(GC 1792) without pre-incubation in mouse serum; format: functional
Escherichia coli [7] = assay: In vitro antibacterial activity expressed as MIC against E. coli(GC 2205) without pre-incubation in mouse serum; format: functional
Mus musculus [8] = assay: Antibacterial activity against Escherichia coli (311) infection in mice after single oral dose, activity expressed as ED50; format: functional
Mus musculus [9] = assay: Antibacterial activity against Escherichia coli (311) infection in mice after single subcutaneous dose, activity expressed as ED50; format: functional; details: sc
Pseudomonas aeruginosa [10] = assay: In vitro antibacterial activity against Pseudomonas aeruginosa (ATCC 27853) without pre-incubation in mouse serum; format: functional
Pseudomonas aeruginosa [11] = assay: In vitro antibacterial activity against P. aeruginosa(GC 1544 oprd) without pre-incubation in mouse serum; format: functional
Staphylococcus aureus [12] = assay: In vitro antibacterial activity against S. aureus(ATCC 29213) without pre-incubation in mouse serum; format: functional
Staphylococcus aureus [13] = assay: In vitro antibacterial activity against S. aureus(GC 2220 MRSA) without pre-incubation in mouse serum; format: functional
[14] = system: Acinetobacter calcoaceticus; assay: In vitro antibacterial activity against Acinetobacter calcoaceticus (GC 756) without preincubation in mouse serum; format: functional
Morganella morganii [15] = assay: In vitro antibacterial activity against M. morganii(GC 2213) without preincubation in mouse serum
Enterococcus faecalis [16] = assay: In vitro antibacterial activity against E. faecalis(GC 842) without pre-incubation in mouse serum
[17] = system: Stenotrophomonas maltophilia; assay: In vitro antibacterial activity against X. maltophilia(GC 562) without pre-incubation in mouse serum
[18] = system: Acinetobacter calcoaceticus; assay: In vitro antibacterial activity against Acinetobacter calcoaceticus (GC 756) following preincubation in mouse serum; format: functional
Citrobacter freundii [19] = assay: In vitro antibacterial activity against C. freundii(GC 2211) following pre-incubation in mouse serum; format: functional
Enterococcus faecalis [20] = assay: In vitro antibacterial activity against E. faecalis(GC 842) without pre-incubation in mouse serum; format: functional
Enterococcus faecalis [21] = assay: In vitro antibacterial activity against E. faecalis(GC 842) following pre-incubation in mouse serum; format: functional
Enterobacter cloacae [22] = assay: In vitro antibacterial activity against E. cloacae(GC 2209) following preincubation in mouse serum; format: functional
Escherichia coli [23] = assay: In vitro antibacterial activity expressed as MIC against Escherichia coli (ATCC 25922) following pre-incubation in mouse serum; format: functional
Escherichia coli [24] = assay: In vitro antibacterial activity expressed as MIC against E. coli(GC 1792) following pre-incubation in mouse serum; format: functional
Escherichia coli [25] = assay: In vitro antibacterial activity expressed as MIC against E. coli(GC 2205) following pre-incubation in mouse serum; format: functional
Morganella morganii [26] = assay: In vitro antibacterial activity against M. morganii(GC 2213) following pre-incubation in mouse serum; format: functional
Morganella morganii [27] = assay: In vitro antibacterial activity against M. morganii(GC 2213) without pre-incubation in mouse serum; format: functional
Pseudomonas aeruginosa [28] = assay: In vitro antibacterial activity against Pseudomonas aeruginosa (ATCC 27853) following pre-incubation in mouse serum; format: functional
Staphylococcus aureus [29] = assay: In vitro antibacterial activity against S aureus(ATCC 29213) following preincubation in mouse serum; format: functional
[30] = system: Stenotrophomonas maltophilia; assay: In vitro antibacterial activity against X. maltophilia(GC 562) without pre-incubation in mouse serum; format: functional
Staphylococcus aureus [31] = assay: In vitro antibacterial activity against S. aureus(GC 2220 MRSA) following pre-incubation in mouse serum; format: functional
Pseudomonas aeruginosa [32] = assay: In vitro antibacterial activity against P. aeruginosa(GC 1544 oprd) following pre-incubation in mouse serum; format: functional
[33] = system: Stenotrophomonas maltophilia; assay: In vitro antibacterial activity against X. maltophilia(GC 562) following pre-incubation in mouse serum; format: functional
Enterococcus faecium [34] = assay: In vitro for antibacterial activity against E. faecium(GC 1182) following pre-incubation in mouse serum; format: functional

| Structure (SMILES) | MIC (Citrobacter freundii [1]) [mg/L] | Relative hydrolysis [2] | MIC (Enterobacter cloacae [3]) [mg/L] | MIC (Enterococcus faecium [4]) [mg/L] | MIC (Escherichia coli [5]) [mg/L] | MIC (Escherichia coli [6]) [mg/L] | MIC (Escherichia coli [7]) [mg/L] | ED50 (Mus musculus [8]) [mg/kg] | ED50 (Mus musculus [9]) [mg/kg] | MIC (Pseudomonas aeruginosa [10]) [mg/L] | MIC (Pseudomonas aeruginosa [11]) [mg/L] | MIC (Staphylococcus aureus [12]) [mg/L] | MIC (Staphylococcus aureus [13]) [mg/L] | MIC [14] [mg/L] | MIC [18] [mg/L] | MIC (Citrobacter freundii [19]) [mg/L] | MIC (Enterococcus faecalis [20]) [mg/L] | MIC (Enterococcus faecalis [21]) [mg/L] | MIC (Enterobacter cloacae [22]) [mg/L] | MIC (Escherichia coli [23]) [mg/L] | further results |
| --- | --- | --- | --- | --- | --- | --- | --- | --- | --- | --- | --- | --- | --- | --- | --- | --- | --- | --- | --- | --- | --- |
| C[C@@H](O)[C@H]1C(=O)N2C(C(=O)O)=C(S[C@@H]3CCO[C@@H]3CN)[C@H](C)[C@H]12 | < 0.06 | 8.5 | < 0.06 | 64 (≈ 187 µM) | < 0.06 | < 0.06 | < 0.06 | 3.8 | 0.34 | 8 (≈ 23.4 µM) | 16 (≈ 46.7 µM) | < 0.06 | 1 (≈ 2.92 µM) | 2 (≈ 5.84 µM) | – | – | – | – | – | – | MIC (Morganella morganii [15]): 0.5 mg/L (≈ 1.46 µM); MIC (Enterococcus faecalis [16]): 0.5 mg/L (≈ 1.46 µM); MIC [17]: > 128 mg/L |
| CCOC(=O)OCOC(=O)C1=C(S[C@@H]2CCO[C@@H]2CNC(=O)OCOC(=O)C(C)(C)C)[C@H](C)C2[C@@H]([C@@H](C)O)C(=O)N12 (stereo partly specified) | > 128 | 20 | > 128 | > 128 | 128 (≈ 212 µM) | > 128 | 1 (≈ 1.66 µM) | 0.96 | 0.73 | > 128 | > 128 | 4 (≈ 6.64 µM) | 64 (≈ 106 µM) | > 128 | 8 (≈ 13.3 µM) | 0.5 (≈ 0.83 µM) | 64 (≈ 106 µM) | 4 (≈ 6.64 µM) | 0.25 (≈ 0.415 µM) | 0.06 (≈ 0.0996 µM) | MIC (Escherichia coli [24]): 0.12 mg/L (≈ 0.199 µM); MIC (Escherichia coli [25]): 0.12 mg/L (≈ 0.199 µM); MIC (Morganella morganii [26]): 4 mg/L (≈ 6.64 µM); MIC (Morganella morganii [27]): > 128 mg/L; MIC (Pseudomonas aeruginosa [28]): 32 mg/L (≈ 53.1 µM); MIC (Staphylococcus aureus [29]): 0.12 mg/L (≈ 0.199 µM); MIC [30]: > 128 mg/L; MIC (Staphylococcus aureus [31]): 2 mg/L (≈ 3.32 µM); MIC (Pseudomonas aeruginosa [32]): 64 mg/L (≈ 106 µM); MIC [33]: > 128 mg/L; MIC (Enterococcus faecium [34]): > 128 mg/L |
| CCOC(=O)OCOC(=O)C1=C(S[C@@H]2CCO[C@@H]2CNC(=O)OCOC(=O)C(C)C)[C@H](C)C2[C@@H]([C@@H](C)O)C(=O)N12 (stereo partly specified) | > 128 | 11 | > 128 | > 128 | 32 (≈ 54.4 µM) | 16 (≈ 27.2 µM) | 20 (≈ 34 µM) | 0.56 | 0.4 | > 128 | > 128 | 4 (≈ 6.8 µM) | 128 (≈ 217 µM) | > 128 | 4 (≈ 6.8 µM) | 0.25 (≈ 0.425 µM) | 64 (≈ 109 µM) | 2 (≈ 3.4 µM) | 0.12 (≈ 0.204 µM) | < 0.06 | MIC (Escherichia coli [24]): 0.06 mg/L (≈ 0.102 µM); MIC (Escherichia coli [25]): 0.06 mg/L (≈ 0.102 µM); MIC (Morganella morganii [26]): 1 mg/L (≈ 1.7 µM); MIC (Morganella morganii [27]): 128 mg/L (≈ 217 µM); MIC (Pseudomonas aeruginosa [28]): 16 mg/L (≈ 27.2 µM); MIC (Staphylococcus aureus [29]): 0.06 mg/L (≈ 0.102 µM); MIC [30]: > 128 mg/L; MIC (Staphylococcus aureus [31]): 4 mg/L (≈ 6.8 µM); MIC (Pseudomonas aeruginosa [32]): 32 mg/L (≈ 54.4 µM); MIC [33]: > 128 mg/L; MIC (Enterococcus faecium [34]): 128 mg/L (≈ 217 µM) |
| CCOC(=O)OCOC(=O)C1=C(S[C@@H]2CCO[C@@H]2CNC(=O)OC(C)OC(=O)C(C)(C)C)[C@H](C)C2[C@@H]([C@@H](C)O)C(=O)N12 (stereo partly specified) | > 128 | 19 | > 128 | > 128 | 128 (≈ 208 µM) | > 128 | 1 (≈ 1.62 µM) | 0.42 | 0.46 | > 128 | > 128 | 4 (≈ 6.49 µM) | 64 (≈ 104 µM) | > 128 | 8 (≈ 13 µM) | 0.5 (≈ 0.811 µM) | 32 (≈ 51.9 µM) | 2 (≈ 3.24 µM) | 0.12 (≈ 0.195 µM) | 0.06 (≈ 0.0973 µM) | MIC (Escherichia coli [24]): 0.06 mg/L (≈ 0.0973 µM); MIC (Escherichia coli [25]): 0.06 mg/L (≈ 0.0973 µM); MIC (Morganella morganii [26]): 2 mg/L (≈ 3.24 µM); MIC (Morganella morganii [27]): > 128 mg/L; MIC (Pseudomonas aeruginosa [28]): 32 mg/L (≈ 51.9 µM); MIC (Staphylococcus aureus [29]): 0.06 mg/L (≈ 0.0973 µM); MIC [30]: > 128 mg/L; MIC (Staphylococcus aureus [31]): 4 mg/L (≈ 6.49 µM); MIC (Pseudomonas aeruginosa [32]): 64 mg/L (≈ 104 µM); MIC [33]: > 128 mg/L; MIC (Enterococcus faecium [34]): 64 mg/L (≈ 104 µM) |
| CC(C)C(=O)OCOC(=O)NC[C@H]1OCC[C@H]1SC1=C(C(=O)[O-])N2C(=O)[C@H]([C@@H](C)O)C2[C@H]1C.[Na+] (stereo partly specified) | 2 | 2.9 | 1 | > 128 | 0.25 | 0.5 | 0.12 | 5.1 | 0.59 | 64 | > 128 | 0.25 | 8 | 32 | 4 | 0.25 | 4 | 1 | 0.06 | < 0.06 | MIC (Escherichia coli [24]): < 0.06 mg/L; MIC (Escherichia coli [25]): < 0.06 mg/L; MIC (Morganella morganii [26]): 0.5 mg/L; MIC (Morganella morganii [27]): 4 mg/L; MIC (Pseudomonas aeruginosa [28]): 8 mg/L; MIC (Staphylococcus aureus [29]): 0.03 mg/L; MIC [30]: > 128 mg/L; MIC (Staphylococcus aureus [31]): 2 mg/L; MIC (Pseudomonas aeruginosa [32]): 16 mg/L; MIC [33]: > 128 mg/L; MIC (Enterococcus faecium [34]): 64 mg/L |
